Results as given in patent US8143290B2, “Chemical compounds 572” (AstraZeneca AB, priority 2006, dated 2012).
pIC50: −log10 of the molar value.

Biological target: T1, recombinant human GR (Homo sapiens, UniProt P04150)
T1 construct: purchased Panvera/Invitrogen P2812 (kit P2893)
T1 sequence (P04150 1-777): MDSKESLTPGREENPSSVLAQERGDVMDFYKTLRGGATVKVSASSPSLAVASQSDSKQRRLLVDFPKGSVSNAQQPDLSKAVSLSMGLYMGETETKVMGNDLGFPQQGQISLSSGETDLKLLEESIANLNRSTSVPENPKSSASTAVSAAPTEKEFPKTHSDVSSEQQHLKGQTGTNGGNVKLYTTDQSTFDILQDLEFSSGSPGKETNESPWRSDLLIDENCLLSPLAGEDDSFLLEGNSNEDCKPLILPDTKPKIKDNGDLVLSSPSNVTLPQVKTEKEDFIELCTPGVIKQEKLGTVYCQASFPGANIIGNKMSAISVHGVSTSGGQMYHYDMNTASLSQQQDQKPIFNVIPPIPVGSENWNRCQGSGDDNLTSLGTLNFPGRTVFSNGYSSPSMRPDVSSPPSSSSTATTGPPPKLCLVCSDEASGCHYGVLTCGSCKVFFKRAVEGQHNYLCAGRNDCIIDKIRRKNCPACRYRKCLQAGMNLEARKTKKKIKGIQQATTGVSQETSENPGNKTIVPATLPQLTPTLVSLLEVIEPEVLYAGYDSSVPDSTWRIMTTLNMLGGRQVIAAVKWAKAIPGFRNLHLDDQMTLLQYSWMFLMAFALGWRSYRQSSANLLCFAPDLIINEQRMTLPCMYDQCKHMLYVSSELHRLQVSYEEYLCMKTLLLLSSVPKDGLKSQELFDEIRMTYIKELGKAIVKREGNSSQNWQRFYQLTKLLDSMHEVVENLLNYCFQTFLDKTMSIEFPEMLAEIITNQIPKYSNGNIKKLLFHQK
Assay: Human Glucocorticoid Receptor (GR) Assay, fluorescence polarization
Assay type: binding
Settings: GS Red tracer, incubated 2 h at r.t., XLfit model 205, read-out: GRhuFL_FP_v2 Mean IC50
Method in brief: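 Fluorescence polarization kit assay: recombinant GR and GS Red fluorescent ligand with Stabilizing Peptide and DTT in potassium phosphate/sodium molybdate/EDTA screening buffer. Plates incubated 2 h in the dark at r.t.; DMSO served as 0% and dexamethasone as 100% control.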

SMILES	pIC50
Cc1cc(C)c([C@@H](Oc2ccc3c(cnn3-c3ccc(F)cc3)c2)[C@H](C)NC(=O)C2(C)CC2)cc1C [Example 224, N-[(1R,2S)-1-[1-(4-fluorophenyl)indazol-5-yl]oxy-1-(2,4,5-trimethylphenyl)propan-2-yl]-1-methyl-cyclopropane-1-carboxamide]	8.24
C[C@H](NC(=O)C1(C)CC1)[C@H](Oc1ccc2c(cnn2-c2ccc(F)cc2)c1)c1ccc(C(C)(C)C)cc1 [Example 226, N-[(1R,2S)-1-[1-(4-fluorophenyl)indazol-5-yl]oxy-1-(4-tert-butylphenyl)propan-2-yl]-1-methyl-cyclopropane-1 carboxamide]	8.14
C[C@H](NC(=O)C(C)(F)F)[C@H](Oc1ccc2c(cnn2-c2ccc(F)cc2)c1)c1ccc(F)c(F)c1 [Example 228, N-[(1R,2S)-1-(3,4-difluorophenyl)-1-[1-(4-fluorophenyl)indazol-5-yl]oxy-propan-2-yl]-2,2-difluoro-propanamide]	8.10
Cc1cc(F)ccc1[C@@H](Oc1ccc2c(cnn2-c2ccc(F)cc2)c1)[C@H](C)NC(=O)C(C)(F)F [Example 233, 2,2-difluoro-N-[(1R,2S)-1-(4-fluoro-2-methyl-phenyl)-1-[1-(4-fluorophenyl)indazol-5-yl]oxy-propan-2-yl]propanamide]	8.21
Cc1ccc(F)cc1[C@@H](Oc1ccc2c(cnn2-c2ccc(F)cc2)c1)[C@H](C)NC(=O)C(C)(F)F [Example 234, 2,2-difluoro-N-[(1R,2S)-1-(5-fluoro-2-methyl-phenyl)-1-[1-(4-fluorophenyl)indazol-5-yl]oxy-propan-2-yl]propanamide]	8.19
COc1c(C)cc([C@@H](Oc2ccc3c(cnn3-c3ccc(F)cc3)c2)[C@H](C)NC(=O)C(C)(F)F)cc1C [Example 236, 2,2-difluoro-N-[(1R,2S)-1-[1-(4-fluorophenyl)indazol-5-yl]oxy-1-(4-methoxy-3,5-dimethyl-phenyl)propan-2-yl]propanamide]	8.14
C[C@H](NC(=O)C(C)(F)F)[C@H](Oc1ccc2c(cnn2-c2ccc(F)cc2)c1)c1ccc(Cl)cc1 [Example 237, N-[(1R,2S)-1-(4-chlorophenyl)-1-[1-(4-fluorophenyl)indazol-5-yl]oxy-propan-2-yl]-2,2-difluoro-propanamide]	8.08
C[C@H](NC(=O)C(C)(F)F)[C@H](Oc1ccc2c(cnn2-c2ccc(F)cc2)c1)c1cc(F)cc(Cl)c1 [Example 238, N-[(1R,2S)-1-(3-chloro-5-fluoro-phenyl)-1-[1-(4-fluorophenyl)indazol-5-yl]oxy-propan-2-yl]-2,2-difluoro-propanamide]	8.17
Cc1cccc([C@@H](Oc2ccc3c(cnn3-c3ccc(F)cc3)c2)[C@H](C)NC(=O)C(C)(F)F)c1 [Example 239, 2,2-difluoro-N-[(1R,2S)-1-[1-(4-fluorophenyl)indazol-5-yl]oxy-1-(3-methylphenyl)propan-2-yl]propanamide]	8.05
Cc1ccc([C@@H](Oc2ccc3c(cnn3-c3ccc(F)cc3)c2)[C@H](C)NC(=O)C(C)(C)F)cc1C [Example 240, N-[(1R,2S)-1-(3,4-dimethylphenyl)-1-[1-(4-fluorophenyl)indazol-5-yl]oxy-propan-2-yl]-2-fluoro-2-methyl-propanamide]	8.23
C[C@H](NC(=O)C(C)(C)F)[C@H](Oc1ccc2c(cnn2-c2ccc(F)cc2)c1)c1cccc(F)c1 [Example 243, 2-fluoro-N-[(1R,2S)-1-(3-fluorophenyl)-1-[1-(4-fluorophenyl)indazol-5-yl]oxy-propan-2-yl]-2-methyl-propanamide]	8.26
Cc1ccc(C)c([C@@H](Oc2ccc3c(cnn3-c3ccc(F)cc3)c2)[C@H](C)NC(=O)C(C)(C)F)c1 [Example 244, N-[(1R,2S)-1-(2,5-dimethylphenyl)-1-[1-(4-fluorophenyl)indazol-5-yl]oxy-propan-2-yl]-2-fluoro-2-methyl-propanamide]	8.08
Cc1ccc([C@@H](Oc2ccc3c(cnn3-c3ccc(F)cc3)c2)[C@H](C)NC(=O)C(C)(C)F)c(C)c1 [Example 245, N-[(1R,2S)-1-(2,4-dimethylphenyl)-1-[1-(4-fluorophenyl)indazol-5-yl]oxy-propan-2-yl]-2-fluoro-2-methyl-propanamide]	8.26
COc1ccc([C@@H](Oc2ccc3c(cnn3-c3ccc(F)cc3)c2)[C@H](C)NC(=O)C(C)(C)F)cc1F [Example 246, 2-fluoro-N-[(1R,2S)-1-(3-fluoro-4-methoxy-phenyl)-1-[1-(4-fluorophenyl)indazol-5-yl]oxy-propan-2-yl]-2-methyl-propanamide]	8.22
COc1ccc(F)cc1[C@@H](Oc1ccc2c(cnn2-c2ccc(F)cc2)c1)[C@H](C)NC(=O)C(C)(C)F [Example 250, 2-fluoro-N-[(1R,2S)-1-(5-fluoro-2-methoxy-phenyl)-1-[1-(4-fluorophenyl)indazol-5-yl]oxy-propan-2-yl]-2-methyl-propanamide]	8.16

Now from value to compound:

pIC50	SMILES
8.32	Cc1cccc([C@@H](Oc2ccc3c(cnn3-c3ccc(F)cc3)c2)[C@H](C)NC(=O)C2(C)CC2)c1 [Example 225, N-[(1R,2S)-1-[1-(4-fluorophenyl)indazol-5-yl]oxy-1-(3-methylphenyl)propan-2-yl]-1-methyl-cyclopropane-1-carboxamide]
8.51	COc1ccccc1[C@@H](Oc1ccc2c(cnn2-c2ccc(F)cc2)c1)[C@H](C)NC(=O)C1(C)CC1 [Example 227, N-[(1R,2S)-1-[1-(4-fluorophenyl)indazol-5-yl]oxy-1-(2-methoxyphenyl)propan-2-yl]-1-methyl-cyclopropane-1-carboxamide]
8.26	Cc1ccc([C@@H](Oc2ccc3c(cnn3-c3ccc(F)cc3)c2)[C@H](C)NC(=O)C(C)(F)F)cc1F [Example 229, 2,2-difluoro-N-[(1R,2S)-1-(3-fluoro-4-methyl-phenyl)-1-[1-(4-fluorophenyl)indazol-5-yl]oxy-propan-2-yl]propanamide]
8.32	C[C@H](NC(=O)C(C)(F)F)[C@H](Oc1ccc2c(cnn2-c2ccc(F)cc2)c1)c1cccc(F)c1 [Example 230, 2,2-difluoro-N-[(1R,2S)-1-(3-fluorophenyl)-1-[1-(4-fluorophenyl)indazol-5-yl]oxy-propan-2-yl]propanamide]
8.29	COc1ccc([C@@H](Oc2ccc3c(cnn3-c3ccc(F)cc3)c2)[C@H](C)NC(=O)C(C)(F)F)cc1F [Example 231, 2,2-difluoro-N-[(1R,2S)-1-(3-fluoro-4-methoxy-phenyl)-1-[1-(4-fluorophenyl)indazol-5-yl]oxy-propan-2-yl]propanamide]
8.27	C[C@H](NC(=O)C(C)(F)F)[C@H](Oc1ccc2c(cnn2-c2ccc(F)cc2)c1)c1cccc(Cl)c1 [Example 232, N-[(1R,2S)-1-(3-chlorophenyl)-1-[1-(4-fluorophenyl)indazol-5-yl]oxy-propan-2-yl]-2,2-difluoro-propanamide]
8.27	COc1ccc(F)cc1[C@@H](Oc1ccc2c(cnn2-c2ccc(F)cc2)c1)[C@H](C)NC(=O)C(C)(F)F [Example 235, 2,2-difluoro-N-[(1R,2S)-1-(5-fluoro-2-methoxy-phenyl)-1-[1-(4-fluorophenyl)indazol-5-yl]oxy-propan-2-yl]propanamide]
8.31	C[C@H](NC(=O)C(C)(C)F)[C@H](Oc1ccc2c(cnn2-c2ccc(F)cc2)c1)c1ccc(F)c(F)c1 [Example 241, N-[(1R,2S)-1-(3,4-difluorophenyl)-1-[1-(4-fluorophenyl)indazol-5-yl]oxy-propan-2-yl]-2-fluoro-2-methyl-propanamide]
8.26	Cc1ccc([C@@H](Oc2ccc3c(cnn3-c3ccc(F)cc3)c2)[C@H](C)NC(=O)C(C)(C)F)cc1F [Example 242, 2-fluoro-N-[(1R,2S)-1-(3-fluoro-4-methyl-phenyl)-1-[1-(4-fluorophenyl)indazol-5-yl]oxy-propan-2-yl]-2-methyl-propanamide]
8.36	C[C@H](NC(=O)C(C)(C)F)[C@H](Oc1ccc2c(cnn2-c2ccc(F)cc2)c1)c1cccc(Cl)c1 [Example 247, N-[(1R,2S)-1-(3-chlorophenyl)-1-[1-(4-fluorophenyl)indazol-5-yl]oxy-propan-2-yl]-2-fluoro-2-methyl-propanamide]
8.32	Cc1cc(F)ccc1[C@@H](Oc1ccc2c(cnn2-c2ccc(F)cc2)c1)[C@H](C)NC(=O)C(C)(C)F [Example 248, 2-fluoro-N-[(1R,2S)-1-(4-fluoro-2-methyl-phenyl)-1-[1-(4-fluorophenyl)indazol-5-yl]oxy-propan-2-yl]-2-methyl-propanamide]
8.30	Cc1ccc(F)cc1[C@@H](Oc1ccc2c(cnn2-c2ccc(F)cc2)c1)[C@H](C)NC(=O)C(C)(C)F [Example 249, 2-fluoro-N-[(1R,2S)-1-(5-fluoro-2-methyl-phenyl)-1-[1-(4-fluorophenyl)indazol-5-yl]oxy-propan-2-yl]-2-methyl-propanamide]
